According to patent US20250020635A1, “ASSAY METHODS AND USES THEREOF FOR SCREENING ALZHEIMER'S DISEASE TREATMENT COMPOUNDS” (priority 2023, published 2025):

How the values were obtained:
HiBit only = assay: Cellular thermal shift assay (CETSA), HiBit only control; format: cell-based, human; details: for HiBit only %, percent luminescence at highest dose with HiBit only compared to control (DMSO): 100 μM
BV2 cells = assay: Microglial phagocytosis/cell health high-content assay, BV2 cells; format: cell-based; details: for Ave. % Cell Count @ 60 uM BV2 cells / Ave. % Phagocytosis @ 60 uM BV2 cells: 48 hrs, compared to control
Protocol: The assay introduced here is a simplified cellular imaging assay without any fixation and washing steps, while producing multiparameter measurements with high capacity using a 384-well plate format. The assay procedures include plating cells on day 1, incubating cell plates overnight before treating cells on day 2, adding pHrodo™-myelin/membrane debris to cell plates on day 3, and 20 hr later, staining cell nuclei with Hoechst-33342 for 30 min before performing high-content imaging on day 4. Three selected parameters are measured from cells: 1) mean total fluorescence intensity per cell of pHrodo™-myelin/membrane debris in phagocytosis vesicles to quantify phagocytosis; 2) cell counts per well to quantify treatment effects on proliferation and cell death; and 3) average nuclear intensity to quantify treatment-induced nuclear changes such as in apoptosis. The assay has been used on HMC3 cells (an immortalized human microglial cell line), BV2 cells (an immortalized mouse microglial cell line), and primary microglia isolated from mouse brains. For initial assay attempts, we recommend using HMC3 cells available from the ATCC.
All collected raw data are normalized to the untreated control with following formula: % of control=100×(X−Min)/(Max−Min). Factors in the formula are: X is raw data from a treated well, Max is an average measurement from pHrodo™-myelin seeded but untreated wells, and Min is an average measurement from no pHrodo™-myelin untreated wells. Normalized data are used for curve fitting that is done with the variable slope (four parameters) using the Prism software.
To ensure that the measurements reflect the steady state of compound treatment effects and cell health, the assay was set with a total compound treatment time of 48 hr, including pHrodo™-myelin/membrane debris seeding performed 20-24 hr after compound addition. […] Among many available quantitative measurements from the image analysis, we selected three parameters for the assay:
1) The mean total intensity of phagocytosis vesicles/cell—to measure phagocytosis. There are multiple parameters generated from the image analysis, including phagocytosis vesicle area, number, and various fluorescence intensity measurements. Comparing these parameters, the total fluorescence intensity of vesicles/cell is the most sensitive one and was chosen for quantifying phagocytosis.
2) The total cell counts—to measure overall cell viability, which is affected by proliferation and cell death. We chose to take 4 images/well (with the 10× objective lens) that cover about 50% of the total area of a well in a 384-well plate to represent cell count of the well.
3) The average nuclear intensity—to measure drug-induced apoptosis, with high signal indicating nuclear condescension (a sign of early apoptosis) and low signal indicating DNA degradation (a sign of later apoptosis, when activated caspases digest DNA).
A phenotypic high-content imaging assay with simultaneous measurements of phagocytosis, cell number, and nuclear intensity was used to assess both cellular pharmacology and cell health. Model cell lines BV2 (immortalized mouse microglia, a gift from Dr. Michelle Block's laboratory at IUSM) and HMC3 (immortalized human microglia, obtained from ATCC, CRL-3304) were used to provide adequate throughput. Cells were cultured in DMEM GlutaMax media (ThermoFisher) containing 10% FBS and Pen-Strep in a 37° C. 5% CO2 incubator, plated in Corning Falcon 384 well Optilux Black and clear bottom plates: 400 cells/45 μl/well (BV2 cells), 600 cells/45 μl/well (HMC3 cells) and 2000 cell/45 μl/well (primary cells), and treated with 10× serially diluted compounds (60 μM-3 nM) for 48 hrs at 37° C. […]

His-PLCγ2 protein = biological target: T1, His-PLCγ2 protein (Homo sapiens, UniProt P16885); assay: Affinity selection mass spectrometry (ASMS); format: binding; details: dose range 100-0.05 μM, PLCγ2 400 nM
T1 sequence (P16885 1-1265): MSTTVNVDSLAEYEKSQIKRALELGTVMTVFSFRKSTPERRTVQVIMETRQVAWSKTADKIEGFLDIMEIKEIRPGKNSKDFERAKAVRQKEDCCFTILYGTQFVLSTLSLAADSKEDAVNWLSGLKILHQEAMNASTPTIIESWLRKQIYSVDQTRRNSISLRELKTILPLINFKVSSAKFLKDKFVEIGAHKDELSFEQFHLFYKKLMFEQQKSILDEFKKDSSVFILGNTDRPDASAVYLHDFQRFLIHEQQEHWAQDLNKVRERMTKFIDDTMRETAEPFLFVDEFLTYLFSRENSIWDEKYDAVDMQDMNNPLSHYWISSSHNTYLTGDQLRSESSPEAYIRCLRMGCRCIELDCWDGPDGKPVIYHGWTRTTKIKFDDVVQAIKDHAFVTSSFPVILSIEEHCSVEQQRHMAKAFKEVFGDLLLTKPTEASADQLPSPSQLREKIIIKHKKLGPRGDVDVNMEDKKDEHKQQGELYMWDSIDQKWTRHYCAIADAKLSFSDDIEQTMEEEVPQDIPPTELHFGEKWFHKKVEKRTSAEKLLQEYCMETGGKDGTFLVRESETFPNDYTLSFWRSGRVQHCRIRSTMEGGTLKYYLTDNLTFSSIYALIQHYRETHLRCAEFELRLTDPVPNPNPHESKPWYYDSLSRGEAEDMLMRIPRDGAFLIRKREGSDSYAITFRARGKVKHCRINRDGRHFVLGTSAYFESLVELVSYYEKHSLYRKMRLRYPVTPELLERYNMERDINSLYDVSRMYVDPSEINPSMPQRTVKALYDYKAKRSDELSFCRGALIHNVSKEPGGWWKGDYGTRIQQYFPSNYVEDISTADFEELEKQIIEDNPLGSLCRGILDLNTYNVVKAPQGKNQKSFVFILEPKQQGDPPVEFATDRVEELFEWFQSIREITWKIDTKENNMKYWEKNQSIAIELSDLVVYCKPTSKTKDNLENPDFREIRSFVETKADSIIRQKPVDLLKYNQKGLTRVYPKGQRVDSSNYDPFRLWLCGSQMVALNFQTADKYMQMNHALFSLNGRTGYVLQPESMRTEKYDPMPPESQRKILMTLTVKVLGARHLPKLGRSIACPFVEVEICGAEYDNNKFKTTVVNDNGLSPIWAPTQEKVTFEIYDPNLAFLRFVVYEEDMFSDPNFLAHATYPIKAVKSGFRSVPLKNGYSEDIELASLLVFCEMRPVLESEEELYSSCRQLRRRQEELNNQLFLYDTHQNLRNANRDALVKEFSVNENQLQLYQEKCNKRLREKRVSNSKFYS
Protocol: Using a dose range of 100-0.05 μM in 384 well low-volume polypropylene microtiter plates, a solution of PLCγ2 (final concentration 400 nM) was transferred to biochip arrays functionalized with a Tris-Ni-NTA-presenting self-assembled monolayer to immobilize the His-tagged protein. The arrays were incubated for 90 min in a humidified chamber to prevent evaporation and allow for specific immobilization of the His-PLCγ2 protein, along with any bound small molecules. The arrays were purified by a rapid <3 second gentle wash step with deionized ultra-filtered water and dried with compressed air. ASMS was performed using the reflector positive mode on an Aβ Sciex TOF-TOF 5800 System (Aβ Sciex, Framingham, MA).

[1] = Kinetic solubility in pH 7.4 phosphate buffer; format: physicochemical
Protocol: (§1) Physicochemical and ADME properties were determined using the following assays: microsomal stability intrinsic clearance (Clint) in mouse liver microsomal solution, MDCK permeability (Papp), protein binding (fu) in mouse plasma, and kinetic solubility in pH 7.4 phosphate buffer (Table 7).

MDCK = MDCK permeability; format: in vitro ADME; details: estimate of intestinal absorption
Protocol: as §1

[2] = Microsomal stability intrinsic clearance; format: in vitro ADME; details: mouse liver microsomes
Protocol: as §1

[3] = Protein binding in mouse plasma; format: in vitro ADME
Protocol: as §1

Structure (SMILES) | HiBit only %, percent luminescence at highest dose with HiBit only compared to control (DMSO) (HiBit only) [%] | Ave. % Cell Count @ 60 uM BV2 cells (BV2 cells) [%] | Ave. % Phagocytosis @ 60 uM BV2 cells (BV2 cells) [%] | phagocytosis increase against cell count decline (BV2 cells; HMC3 and BV2 cells (Table 6, FIGS. 21, 22)) | target engagement, signal against background (His-PLCγ2 protein) | Kinetic solubility [1] [µM] | Papp, MDCK permeability (MDCK) | HiBit only % @100 μM (HiBit only; Table 1, @100 μM) [%] | Clint, intrinsic clearance [2] [µL/min/mg] | fu, fraction unbound [3]
Cc1cc(C)c(S(=O)(=O)NC2CCCNC2)c(C)c1 (stereo not shown) [Compound 11] | 93 | 63 | 225 | moderate degree of potential cytotoxicity | – | – | – | – | – | –
Cc1cc(C)c(S(=O)(=O)Nc2cccc(C(F)(F)F)c2)c(C)c1 [Compound 1, 2,4,6-trimethyl-N-(meta-3-trifluoromethyl-phenyl)-benzenesulfonamide, reference compound] | – | 2 | 0.05 | – | neither 1 or 2 indicated substantial evidence of target engagement | 21 to 40 | – | – | – | –
O=S(=O)(Nc1ccc(Br)cc1F)c1cccs1 [Compound 8] | 44 | 86 | 114 | – | – | >100 | 95.0 ×10−^6 cm/s | 44 | 77.83 | 0.0193
Cc1cc(C)c(S(=O)(=O)Nc2ccccc2C(F)(F)F)c(C)c1 [Compound 2, o-3M3FBS, reference compound] | – | 104 | 104 | – | neither 1 or 2 indicated substantial evidence of target engagement | – | – | – | – | –
